# Reference: US11197893B2, “Pure platelet-rich plasma (P-PRP) composition for treatment of subclinical mastitis and methods of producing and using the same” (Universidad de Caldas, priority 2016, dated 2021)
# How the values were obtained:
# [1] = tested on: Gram-positive major pathogens; experiment: Non-inferiority randomized clinical trial: bacteriological cure in cows with subclinical mastitis; format: in vivo
# Experimental: (§1) A non-inferiority randomized clinical trial was conducted, following methodology described in Schukken et al., “Noninferiority Trial Comparing a First-Generation Cephalosporin With a Third-Generation Cephalosporin in the Treatment of Nonsevere Clinical Mastitis in Dairy Cows,” J. Dairy Sci. 96(10): 6763-74 (2013). […] Ha: [Rcure(cefquinome)−Rcure(P-PRP)]>−Δ [2] where “Rcure”is the cure risk and “Δ” is the non-inferiority margin. Results were interpreted according to the principles for a non-inferiority trial (Piaggio et al., “Reporting of Noninferiority and Equivalence Randomized Trials: Extension of the CONSORT 2010 Statement,” JAMA 308(24): 2594-604 (2012); Schukken et al. (2013)).
# The milk samples were streaked onto agar plates containing 5% sheep blood and 0.1% esculin. The agar plates were incubated at 37.5° C. and visually inspected at 24 hours and 48 hours for bacterial growth. Morphology and Gram staining were used for initial identification. A catalase test was used to differentiate staphylococci from streptococci, and a coagulase test was performed on catalase-positive cocci to confirm presence of Staphylococcus aureus. Gram-positive and catalase-negative cocci were differentiated by their reaction to the hydrolysis of esculin under ultraviolet light. The Christie, Atkins, Munch-Petersen (CAMP) test and esculin reaction were used to differentiate Streptococcus agalactiae and Streptococcus dysgalactiae, and esculin reaction and culture in enterococcosel agar (from Becton-Dickinson, Durham, N.C., USA) were used to identify Streptococcus uberis. Their morphology and Gram staining were used to identify Corynebacterium species. Growth in McConckey agar and further biochemical tests, such as citrate, indole, oxidase and motility, were used to identify coliforms. Those cultures that presented more than two bacterial species were considered contaminated and not informative of intramammary infection. […]
# Streptococcus agalactiae = experiment: Non-inferiority trial: bacteriological cure, Strep. agalactiae infections; format: in vivo, cows
# Experimental: as §1
# (§2) The milk samples were streaked onto agar plates containing 5% sheep blood and 0.1% esculin. The agar plates were incubated at 37.5° C. and visually inspected at 24 hours and 48 hours for bacterial growth. Morphology and Gram staining were used for initial identification. A catalase test was used to differentiate staphylococci from streptococci, and a coagulase test was performed on catalase-positive cocci to confirm presence of Staphylococcus aureus. Gram-positive and catalase-negative cocci were differentiated by their reaction to the hydrolysis of esculin under ultraviolet light. […]
# [2] = Somatic cell count (LnSCC) in milk of treated cows; format: in vivo; details: days 21, 22, 47, 48 vs day 0; FIG. 7
# Text: Two individual composite milk samples were aseptically collected from each cow during the first visit to the herd in order to select the cows to be treated for subclinical mastitis. These milk samples were refrigerated and submitted to Universidad de Caldas for analysis, with one of the samples being used for analysis of subclinical mastitis using an automated cell counter (FOSSOMATIC, from Foss, Hillerod, Denmark). The subclinical mastitis results were expressed as the natural log (LnSCC), in thousands/mL to normalize the data distribution. […]
# Cure was defined at the cow level. […] Cure risk was statistically assessed for initial treatment (samples taken at days 21 and 22) and treatment of refractory cases samples (samples taken at days 47 and 48), independently. […]
# The statistical analyses of LnSCC and the milk concentration of IL-1, IL-2, IL-4, IL-6, IL-8, IFN-γ, and TNF-αresults were done using linear regression. […] The linear regression model used was: y=intercept+treatment+herd+parity+LnSCC+error [4] where y corresponds to LnSCC after treatment on days 21 and 47 for cows treated one or two times, respectively, and the milk concentrations of IL-1, IL-2, IL-4, IL-6, IL-8, IFN-γ, and TNF-α, which were measured only at days 0 and 21. […]
# IFN-γ = experiment: Cytokine concentrations in milk of treated cows (ELISA); format: in vivo
# Experimental: Once cows were treated, composite milk samples from both treated groups were collected at days 21 and 22 after treatment for SCC and microbiological analyses. Procedures for SCC and microbiology were previously described. Treatment was repeated in cows that remained positive for major Gram-positive bacteria, receiving the same product used for the first treatment 4 days after collecting the second milk sample. A final milk sampling was conducted on all refractory cases 21 and 22 days after the repeated treatment. Individual cow SCC, including laboratory data and pre- and post-treatment concentration of cytokines (IL-1, IL-2, IL-4, IL-6, IL-8, IFN-γ, and TNF-α), were generated for each milk sample. No more than two treatment attempts per cow were performed and used in the study.
# Proteins were analyzed in hemoderivatives and whole milk using commercial ELISA development kits from R&D Systems (Minneapolis, Minn., USA) with the exception of […]. PDGF-BB (Human PDGF-BB DuoSet, DY220), TGF-β1 (Human TGF-β1 DuoSet, DY240E), and PF4 (Human CXCL4/PF4 Duoset, DY795), which were determined using human antibodies. […]
# Streptococcus uberis = experiment: Non-inferiority trial: bacteriological cure, Strep. uberis infections; format: in vivo, cows; details: Strep. uberis cases; margin −0.175; 95% CI; FIG. 6
# Experimental: as §1, §2
compound,measurement,setting,value
CO/N=C(\C(=O)N[C@@H]1C(=O)N2C(C(=O)[O-])=C(C[n+]3cccc4c3CCCC4)CS[C@H]12)c1csc(N)n1.O=S(=O)(O)O [cefquinome sulphate],"Risk difference for bacteriological cure, non-inferiority interpretation","[1]; all cases, margin −0.175, 95% CI, FIG. 6",better
same,"Overall bacteriological cure, percent of cows","[1]; cows with subclinical mastitis, EG n=54, RG n=49",71%
same,"Overall bacteriological cure, number of cows","[1]; cows with subclinical mastitis, intramammary infusion, three consecutive milkings, EG n=54, RG n=49",35 cows
same,"Risk difference for bacteriological cure, non-inferiority interpretation","Streptococcus agalactiae; Strep. agalactiae cases, margin −0.175, 95% CI, FIG. 6","better, although non-inferiority is inconclusive"
same,Cure risk for Strep. agalactiae,Streptococcus agalactiae; in vivo,100%
same,Change of mean LnSCC in milk after the start of the trial,[2],no differences
same,"Concentration of IFN-γ in milk, change",IFN-γ; by day 47 in cows treated twice,increased
same,"Concentration of IFN-γ in milk, comparison between groups",IFN-γ; days 0 and 22,higher
same,"Risk difference for bacteriological cure, non-inferiority interpretation",Streptococcus uberis,better
